Measurements published in patent US20240425518A1, “N-MACROCYCLIC AMIDE COMPOUNDS, PREPARATION METHODS THEREOF AND APPLICATIONS THEREOF AS MEDICAMENTS” (Chengdu FANXI Biopharma Co., Ltd., priority 2023, published 2024).

Columns and labels:
[1] = tested on: TT Human medullary thyroid cancer; assay: MTT cell proliferation inhibition, TT; type: cell-based; conditions: 72 hours
Procedure: (§1) Human cancer cells were purchased from ATCC. The cells were cultured in a culture medium according to the work instruction of ATCC. A dose-response curve was drawn by XL-fitting to determine an IC50 value of a compound. […] Cell proliferation inhibition could be detected by a MTT method (3-(4,5-Dimethylthiazol-2-yl)-2,5-diphenyltetrazolium bromide, and MTT; and 3-(4,5-dimethyl thiazole-2)-2,5-diphenyltertazolium bromide, and thiazolyl blue).
(§2) The cells were cultured in a culture dish first, and the cells in a logarithmic growth phase were inoculated into a 96-well plate (3,000 to 5,000 adherent cells/well, 10,000 to 30,000 suspended cells/well) according to a specific number, with 100 microliters per well, and then cultured in an incubator of 5% CO2 and 37° C. […] An absorbance of a general control group should be a normal value between 0.8 and 1.2. After obtaining absorbance data, a change curve of an inhibition rate was fitted by GraphPad Prism6.03 software and an IC50 value was calculated.
(§3) Calculation of drug inhibition rate: relative cell proliferation inhibition rate=[(control group A570−experimental group A570)/control group […], wherein A570 represented the absorbance at 570 nm.

[2] = tested on: K562 Human acute myelogenous leukemia; assay: MTT cell proliferation inhibition, K562; type: cell-based; conditions: K562, 72 hours
Procedure: as §1, §2, §3

[3] = tested on: HT1080 Human fibrosarcoma cells; assay: MTT cell proliferation inhibition, HT1080; type: cell-based; conditions: HT-1080, HT1080, 72 hours
Procedure: as §1, §2, §3

[4] = tested on: HGC-27 Human gastric cancer cells; assay: MTT cell proliferation inhibition, HGC-27; type: cell-based; conditions: HGC-27, 72 hours
Procedure: as §1, §2, §3

Ret (V804M) (h) = target: T1, Ret (V804M) (h) (Homo sapiens, UniProt P07949, V804M); assay: Radioisotope labeling kinase assay (Eurofins), Ret (V804M); type: biochemical
T1 construct: purchased Eurofins
Procedure: An activity to a human recombinant protein kinase of a series of compounds was determined by a radioisotope labeling method, which was provided by Eurofins Company. A compound to be detected was mixed with a corresponding protein kinase buffer (20 mM propyl sulfonate (MOPS, […].), 1 mM EDTA, 0.10 β-mercaptoethanol, 0.010 Brij-35, […], and 1 mg/mL BSA), the mixture was added into a reaction system (100 μM reaction substrate […], 8 mM MOPS with a pH value of 7.0, 10 mM MgAcetate, 0.2 mM EDTA, and a certain concentration of γ-^33P-ATP). After adding an MgATP composite solution, the reaction was started at room temperature for 40 minutes, and the reaction was terminated by adding 5 μl of […] solution. Then, 10 μl of reaction solution was dropwise added onto a filter and washed with 75 mM phosphoric acid solution for three times, 5 minutes each time, then washed with methanol once again, and dried and subjected to scintillation counting.

T1 sequence (P07949 29-1114 V804M): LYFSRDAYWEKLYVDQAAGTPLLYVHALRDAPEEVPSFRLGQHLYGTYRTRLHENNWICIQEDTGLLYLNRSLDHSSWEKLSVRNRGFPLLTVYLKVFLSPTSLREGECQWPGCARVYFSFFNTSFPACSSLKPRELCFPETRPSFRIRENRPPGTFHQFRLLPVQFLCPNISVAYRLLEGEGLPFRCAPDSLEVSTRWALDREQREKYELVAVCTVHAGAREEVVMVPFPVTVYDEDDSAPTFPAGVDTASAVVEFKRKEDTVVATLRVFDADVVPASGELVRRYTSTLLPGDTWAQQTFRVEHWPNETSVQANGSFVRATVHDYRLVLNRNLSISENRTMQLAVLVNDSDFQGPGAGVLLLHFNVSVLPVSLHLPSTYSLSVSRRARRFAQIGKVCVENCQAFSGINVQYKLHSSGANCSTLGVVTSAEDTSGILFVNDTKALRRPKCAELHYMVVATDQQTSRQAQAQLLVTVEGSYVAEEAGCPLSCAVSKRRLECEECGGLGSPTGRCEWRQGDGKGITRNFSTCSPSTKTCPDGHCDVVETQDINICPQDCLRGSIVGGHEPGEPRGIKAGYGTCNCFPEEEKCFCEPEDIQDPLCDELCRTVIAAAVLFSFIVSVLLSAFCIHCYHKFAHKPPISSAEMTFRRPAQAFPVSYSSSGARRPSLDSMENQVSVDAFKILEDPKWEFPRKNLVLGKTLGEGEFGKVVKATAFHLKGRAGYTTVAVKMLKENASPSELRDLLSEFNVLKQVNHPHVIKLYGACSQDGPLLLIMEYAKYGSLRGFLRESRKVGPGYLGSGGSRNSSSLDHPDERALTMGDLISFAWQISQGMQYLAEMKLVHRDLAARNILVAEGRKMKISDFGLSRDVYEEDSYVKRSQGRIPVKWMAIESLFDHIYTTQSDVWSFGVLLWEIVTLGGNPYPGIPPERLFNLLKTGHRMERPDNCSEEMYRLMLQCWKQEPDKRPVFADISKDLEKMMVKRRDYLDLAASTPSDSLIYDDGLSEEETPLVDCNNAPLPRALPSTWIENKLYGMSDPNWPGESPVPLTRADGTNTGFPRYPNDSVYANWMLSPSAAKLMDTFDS

IC50 [1] | IC50 [2] | IC50 [3] | IC50 [4] | IC50 (Ret (V804M) (h)) | Compound
143 nM | 470 nM | 706 nM | 110 nM | – | O=C(/C=C/CN1CCCC1)Nc1cc2cc(c1)Nc1nccc(n1)-c1cccc(c1)COC/C=C/COC2 [XVI-1]
1470 nM | 2880 nM | 1580 nM | 495 nM | – | O=C(/C=C/CN1CCOCC1)Nc1cc2cc(c1)Nc1nccc(n1)-c1cccc(c1)COC/C=C/COC2 [XVI-3]
– | – | – | – | 122 nM | C1=C/COCc2cccc(c2)-c2ccnc(n2)Nc2cc(cc(OC/C=C/CN3CCCC3)c2)COC/1 [XVI-12]
